How the values were obtained:
[1] = target: T1, NK1 receptor (Homo sapiens, UniProt P25103); assay: NK1 receptor mediated intracellular [Ca2+] mobilization in U251 MG cells using FLIPR; assay type: cell-based; conditions: antagonist potency against Substance P (EC80), normalized to 100 nM Aprepitant, read-out: U251MG (FLIPR pIC50) (converted)
T1 construct: Measurement of NK1 Receptor Mediated Intracellular [Ca^2+]; Mobilization in U251 MG Cells Using FLIPR; endogenous in cells; host or cells: U251 MG cells
Procedure: Measurement of NK1 Receptor Mediated Intracellular [Ca^2+] Mobilization in U251 MG Cells Using FLIPR
U251 MG cells were seeded into black walled clear-bottom 384-well plates (Greiner Bio-One GmbH, Frickenhausen, Germany) at a density of 15,000 cells/well in 50 μl culture medium and cultured overnight in a 37° C. 5% CO2 incubator. The cells were then loaded with the calcium sensitive dye Fluo-4 (Invitrogen) at 1 μM in buffer, containing 0.04%
Pluronic F-127 (Sigma-Aldrich), and 2.5 mM probenecid (Sigma-Aldrich) for 60 min in a humidified atmosphere of 5% CO2. Thereafter, cells were washed three times in washing buffer containing 20 mM HEPES and 2.5 mM probenecid pH 7.3. Serial dilutions of test compounds in assay buffer containing 2% dimethyl sulfoxide (final concentration in the cell plate is 0.5% DMSO) and/or agonist were then automatically pipetted into each test well, and the peak fluorescence intensity was recorded (lex, 488 nm; lem, 540 nm) by the FLIPR instrument (Molecular Devices) for approximately 5 min. To measure antagonist potency, cell plates were first incubated with the test compound and intracellular fluorescence recorded for 5 minutes to check a potential agonist effect of the test compound. Cell plates were quickly removed from the FLIPR instrument and incubated for additional 10 minutes at 37° C. before being moved back to the FLIPR instrument for Substance P (EC80) addition. The response was measured as the peak relative fluorescence change after agonist addition.
The IC50 value is defined as the molar concentration of a test compound that produces a response midway between the fitted top and the fitted bottom. pIC50=−log IC50
Formula is listed as follows: Fit(% Effect calculated)=(A+((B−A)/(1+((C/X)^D)))) • A: bottom value • B: top value • C: […] • D: Hill slope coefficient
Ref: Sullivan E, Tucker E M, and Dale I L. Measurement of [Ca^2+] using the Fluorometric Imaging Plate Reader (FLIPR). Methods Mol Biol 114:125-133, 1999.
Compounds of the present invention were tested according to example 120.

[2] = Hepatic intrinsic clearance following incubation in human liver microsomes; assay type: in vitro ADME; conditions: NADPH regenerating system, 0-30 min, 37 °C
Procedure: Hepatic Extraction Ratio from Hepatic Intrinsic Clearance Following Incubation in Human Liver Microsomes
The general procedure consists of an automated incubation system and LC-MS/MS analysis with human liver microsomes. Human liver microsomes are thawed rapidly in a waterbath at 37° C. and kept on ice until use. The human liver microsomes are diluted with 50 mM potassium phosphate buffer pH 7.4 to a protein concentration of 0.55 mg/mL. Test compounds and positive controls (Verapamil and Dextromethorphan, positive controls for CYP3A4 for CYP2D6 isoforms, respectively) are dissolved in methanol (or other appropriate solvent, if necessary) in order to obtain a 5 mM solution which is further diluted to the concentration of 50 μM. The stock solutions are prepared immediately before the test.
5 μL of 50 μM test compounds and controls are added to 445 μL-of the 0.55 mg/mL microsomes solution and the incubation mixture are pre-warmed at 37° C. for 5 minutes.
The incubation reactions are initiated by adding 50 μL of pre-warmed NADPH regenerating system to the incubation mixtures. 50 μL-aliquots will be taken from the incubation mixtures at: 0, 3, 6, 9, 15 and 30 minutes and the reactions are stopped by adding 100 μL of ACN containing Rolipram, used as generic Internal Standard (1S). Samples are then diluted with 120 μL of Milli-Q water and centrifuged at 3000 rpm for 10 minutes, prior the LC-MS/MS analysis.
The integrated peak areas for test compounds at the selected time points are divided by the respective peak areas of the IS and the percent of parent remaining is calculated by normalizing the peak area ratio of parent to IS at 0 min. Observed rate constant (kobs) for parent degradation is calculated by determining the slope of the line of the graph of the natural log of percentage parent remaining versus time of incubation. From the rate of depletion (min-1) and volume of the incubation (mL), clearance is estimated. This is scaled for the protein in the incubation relative to that in the intact liver, for all species (mL/min/g liver).
Values for the Human in vitro Clint are expressed as mL/min/g liver.
Assuming a liver weight of 25.7 g/kg and a liver blood flow of 20.7 mL/min/kg, the hepatic extraction ratio, Eh, can be derived from the Human in vitro Clint:
E.g. a Human in vitro Clint of 2.4 mL/min/g liver corresponds to a hepatic extraction ratio of 75%.
Some compounds of the present invention were tested according to example 121.

T1 sequence (P25103 whole entry): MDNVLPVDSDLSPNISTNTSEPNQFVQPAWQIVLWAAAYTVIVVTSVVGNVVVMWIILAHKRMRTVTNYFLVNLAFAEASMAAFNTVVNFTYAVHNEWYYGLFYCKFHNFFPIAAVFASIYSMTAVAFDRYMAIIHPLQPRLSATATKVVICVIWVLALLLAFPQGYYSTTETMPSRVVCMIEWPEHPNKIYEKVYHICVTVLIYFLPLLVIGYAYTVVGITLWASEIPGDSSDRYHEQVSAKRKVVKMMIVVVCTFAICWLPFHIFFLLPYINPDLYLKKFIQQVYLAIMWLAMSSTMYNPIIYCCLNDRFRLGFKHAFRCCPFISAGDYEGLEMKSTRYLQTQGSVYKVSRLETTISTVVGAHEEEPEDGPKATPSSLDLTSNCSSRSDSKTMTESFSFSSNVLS

In the case of `Cc1ccccc1C1C2CC3(CCN(C)CC3)C(=O)N2CCN1C(=O)N(C)Cc1cc(C(F)(F)F)cc(C(F)(F)F)c1` (racemic) [Compound 45, N-{[3,5-bis(trifluoromethyl)phenyl]methyl}-N,1-dimethyl-4′-(2-methylphenyl)-1′-oxo-hexahydro-1′H-spiro[piperidine-4,2′-pyrrolo[1,2-a]piperazine]-5′-carboxamide], the IC50 [1] is reported as 0.166 nM and the “Human in vitro Clint (mL/min/g liver)” value [2] is reported as 1.9 mL/min/g liver.

With `Cc1ccccc1C1C2CCC(=O)N2CCN1C(=O)N(C)Cc1cc(F)cc(C(F)(F)F)c1` (single isomer, unassigned) [Compound 3, N-{[3-fluoro-5-(trifluoromethyl)phenyl]methyl}-N-methyl-1-(2-methylphenyl)-6-oxo-octahydropyrrolo[1,2-a]piperazine-2-carboxamide] the IC50 [1] was 1.38 nM and the “Human in vitro Clint (mL/min/g liver)” value [2] was 9.5 mL/min/g liver.

In the case of `Cc1ccccc1C1C2CCC(=O)N2CCN1C(=O)N(C)Cc1cc(C(F)(F)F)cc(C(F)(F)F)c1` (single isomer, unassigned) [Compound 18, N-{[3,5-bis(trifluoromethyl)phenyl]methyl}-N-methyl-1-(2-methylphenyl)-6-oxo-octahydropyrrolo[1,2-a]piperazine-2-carboxamide], the IC50 [1] is reported as 0.603 nM and the “Human in vitro Clint (mL/min/g liver)” value [2] is reported as 2.8 mL/min/g liver.

With `Cc1ccccc1C1C2CC(CO)C(=O)N2CCN1C(=O)N(C)Cc1cc(C(F)(F)F)cc(C(F)(F)F)c1` (single isomer, unassigned) [Compound 22, N-{[3,5-bis(trifluoromethyl)phenyl]methyl}-7-(hydroxymethyl)-N-methyl-1-(2-methylphenyl)-6-oxo-octahydropyrrolo[1,2-a]piperazine-2-carboxamide] the IC50 [1] was 0.0513 nM and the “Human in vitro Clint (mL/min/g liver)” value [2] was 0.8 mL/min/g liver.

For `Cc1ccccc1C1C2CC(C)(C(=O)N(C)C)C(=O)N2CCN1C(=O)N(C)Cc1cc(C(F)(F)F)cc(C(F)(F)F)c1` (single isomer, unassigned) [Compound 26, 2-N-{[3,5-bis(trifluoromethyl)phenyl]methyl}-2-N,7-N,7-N,7-tetramethyl-1-(2-methylphenyl)-6-oxo-octahydropyrrolo[1,2-a]piperazine-2,7-dicarboxamide], the IC50 [1] was 0.661 nM and the “Human in vitro Clint (mL/min/g liver)” value [2] was 1.0 mL/min/g liver.

In the case of `Cc1ccccc1C1C2CC(CN3CCOCC3)C(=O)N2CCN1C(=O)N(C)Cc1cc(C(F)(F)F)cc(C(F)(F)F)c1` (single isomer, unassigned) [Compound 29, N-{[3,5-bis(trifluoromethyl)phenyl]methyl}-N-methyl-1-(2-methylphenyl)-7-(morpholin-4-ylmethyl)-6-oxo-octahydropyrrolo[1,2-a]piperazine-2-carboxamide], the IC50 [1] is reported as 0.398 nM and the “Human in vitro Clint (mL/min/g liver)” value [2] is reported as 6.4 mL/min/g liver.

For `Cc1ccccc1C1C2CC(CN3CCCC3)C(=O)N2CCN1C(=O)N(C)Cc1cc(C(F)(F)F)cc(C(F)(F)F)c1` (single isomer, unassigned) [Compound 30, N-{[3,5-bis(trifluoromethyl)phenyl]methyl}-N-methyl-1-(2-methylphenyl)-6-oxo-7-(pyrrolidin-1-ylmethyl)-octahydropyrrolo[1,2-a]piperazine-2-carboxamide], the IC50 [1] was 0.38 nM and the “Human in vitro Clint (mL/min/g liver)” value [2] was 2.4 mL/min/g liver.

In the case of `Cc1ccccc1C1C2CC(CN3CCOCC3)C(=O)N2CCN1C(=O)N(C)Cc1cc(C(F)(F)F)cc(C(F)(F)F)c1` (single isomer, unassigned) [Compound 41], the IC50 [1] is reported as 0.224 nM and the “Human in vitro Clint (mL/min/g liver)” value [2] is reported as 2.9 mL/min/g liver.

For `Cc1ccccc1C1C2CC(CCO)(CCO)C(=O)N2CCN1C(=O)N(C)Cc1cc(C(F)(F)F)cc(C(F)(F)F)c1` (single isomer, unassigned) [Compound 43, N-{[3,5-bis(trifluoromethyl)phenyl]methyl}-7,7-bis(2-hydroxyethyl)-N-methyl-1-(2-methylphenyl)-6-oxo-octahydropyrrolo[1,2-a]piperazine-2-carboxamide], the IC50 [1] was 0.525 nM and the “Human in vitro Clint (mL/min/g liver)” value [2] was 3.7 mL/min/g liver.

With `Cc1ccccc1C1C2CC3(CCN(C)CC3)C(=O)N2CCN1C(=O)N(C)Cc1cc(C(F)(F)F)cc(C(F)(F)F)c1` (single isomer, unassigned) [Compound 47, N-{[3,5-bis(trifluoromethyl)phenyl]methyl}-N,1-dimethyl-4′-(2-methylphenyl)-1′-oxo-hexahydro-1′H-spiro[piperidine-4,2′-pyrrolo[1,2-a]piperazine]-5′-carboxamide] the IC50 [1] was 0.0933 nM and the “Human in vitro Clint (mL/min/g liver)” value [2] was 0.4 mL/min/g liver.

In the case of `Cc1ccccc1C1C2CC(CO)CN2CCN1C(=O)N(C)Cc1cc(C(F)(F)F)cc(C(F)(F)F)c1` (single isomer, unassigned) [Compound 49, N-{[3,5-bis(trifluoromethyl)phenyl]methyl}-7-(hydroxymethyl)-N-methyl-1-(2-methylphenyl)-octahydropyrrolo[1,2-a]piperazine-2-carboxamide], the IC50 [1] is reported as 0.347 nM and the “Human in vitro Clint (mL/min/g liver)” value [2] is reported as 1.9 mL/min/g liver.

In the case of `Cc1ccccc1C1C2CC(CN3CCOCC3)C(=O)N2CCN1C(=O)N(C)Cc1cc(C(F)(F)F)cc(C(F)(F)F)c1` (single isomer, unassigned) [Compound 50], the IC50 [1] is reported as 0.224 nM and the “Human in vitro Clint (mL/min/g liver)” value [2] is reported as 2.9 mL/min/g liver.

`Cc1ccccc1C1C2CC(CCO)CN2CCN1C(=O)N(C)C(CCO)c1cc(C(F)(F)F)cc(C(F)(F)F)c1` (stereo not shown) [Compound 36, N-{1-[3,5-bis(trifluoromethyl)phenyl]-3-hydroxypropyl}-7-(2-hydroxyethyl)-N-methyl-1-(2-methylphenyl)-octahydropyrrolo[1,2-a]piperazine-2-carboxamide] gave an IC50 [1] of 0.724 nM.

Work on `CC(=O)N1CCN(CC2CC3C(c4ccccc4C)N(C(=O)N(C)Cc4cc(C(F)(F)F)cc(C(F)(F)F)c4)CCN3C2=O)CC1` (stereo not shown) [Compound 37, 7-[(4-acetylpiperazin-1-yl)methyl]-N-{[3,5-bis(trifluoromethyl)phenyl]methyl}-N-methyl-1-(2-methylphenyl)-6-oxo-octahydropyrrolo[1,2-a]piperazine-2-carboxamide] yielded an IC50 [1] of 0.309 nM.

Work on `Cc1ccccc1[C@H]1[C@@H]2CC(CCO)(CCO)C(=O)N2CCN1C(=O)N(C)Cc1cccc(C(F)(F)F)c1` [Compound 80, (1S,8aS)-7,7-bis(2-hydroxyethyl)-N-methyl-6-oxo-1-o-tolyl-N-(3-(trifluoromethyl)benzyl)hexahydropyrrolo[1,2-a]pyrazine-2(1H)-carboxamide] yielded an IC50 [1] of 0.468 nM.

With `Cc1ccccc1[C@H]1[C@@H]2CC(CCO)(CCO)C(=O)N2CCN1C(=O)N(C)[C@@H](CO)c1cc(C(F)(F)F)cc(C(F)(F)F)c1` [Compound 87, (1S,8aS)-N-((R)-1-(3,5-bis(trifluoromethyl)phenyl)-2-hydroxyethyl)-7,7-bis(2-hydroxyethyl)-N-methyl-6-oxo-1-o-tolylhexahydropyrrolo[1,2-a]pyrazine-2(1H)-carboxamide] the IC50 [1] was 0.204 nM.
